Entries after “also recorded” stand apart in the source; their conditions may differ.
Experiments:
[1] = system: porcine intestinal vitamin D receptor; assay: binding to porcine intestinal vitamin D receptor; details: compared to standard 1,25-(OH)2D3 (FIG. 2)
Source text: The battery of in vitro and in vivo assays described in […] et al (J. Med.

[2] = serum calcium response in vitamin D-sufficient normal female rats on normal calcium diet; format: in vivo, rat; details: for serum calcium (hypercalcemia): 5000 pmol/day for 7 days, oral or intraperitoneal, normal female rats, 4 hours after last dose
Experimental: Serum calcium response in vitamin D-sufficient animals on a normal calcium diet. […] The doses were administered to two separate groups of animals by either the oral or intraperitoneal route, and serum calcium levels were assessed 4 hours after the last dose.

HL-60 cells = assay: HL-60 cell differentiation into monocytes; format: cell-based; details: for EC50: HL60 cells (FIG. 3)
Experimental: The differentiation of HL-60 promyelocytic into monocytes was determined as described by Ostrem et al (J. Biol. Chem. 262, 14164-14171, 1987).
VDR binding and HL60 cell differentiation.

[3] = system: intestinal calcium transport; assay: intestinal calcium transport, everted gut sac method, vitamin D-deficient rats; format: in vivo, rat; details: for intestinal calcium transport activity: vitamin D-deficient rats, in words, no dose named
Experimental: Intestinal calcium transport was evaluated in the same groups of animals using the everted gut sac method (FIG. 5).

[4] = target: T1, full-length recombinant rat vitamin D receptor (Rattus norvegicus, UniProt P13053); assay: competition with [3H]-1,25(OH)2D3 for binding to vitamin D receptor; details: full-length recombinant rat vitamin D receptor (FIG. 2)
T1 construct: the full-length recombinant rat vitamin D receptor
T1 sequence (P13053 1-423): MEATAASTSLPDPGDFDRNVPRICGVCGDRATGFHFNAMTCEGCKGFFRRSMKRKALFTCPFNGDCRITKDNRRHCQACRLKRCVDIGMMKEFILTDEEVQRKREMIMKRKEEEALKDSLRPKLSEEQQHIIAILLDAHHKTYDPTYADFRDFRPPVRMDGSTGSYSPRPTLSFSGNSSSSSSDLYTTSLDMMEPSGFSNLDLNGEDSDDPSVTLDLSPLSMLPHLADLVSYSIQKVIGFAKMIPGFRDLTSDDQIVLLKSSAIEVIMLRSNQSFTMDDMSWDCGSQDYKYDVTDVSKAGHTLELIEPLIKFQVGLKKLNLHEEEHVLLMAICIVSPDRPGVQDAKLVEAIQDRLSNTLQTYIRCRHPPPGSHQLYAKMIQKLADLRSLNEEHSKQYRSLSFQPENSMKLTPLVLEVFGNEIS

[5] = system: calcium mobilization from bone; assay: bone calcium mobilization in vitamin D-deficient rats on low calcium diet; format: in vivo, rat; details: for bone calcium mobilization activity: in words, no dose named
Experimental: Calcium mobilization from bone and intestinal calcium absorption in vitamin D-deficient animals. Using vitamin D-deficient rats on a low calcium diet (0.02%), the activities of these compounds in intestine and bone were tested.

| Compound | binding to the porcine receptor as compared to 1,25-(OH)2D3 [1] | serum calcium (hypercalcemia) [2] | calcemic activity from serum calcium after chronic doses ([2]; rats, chronic doses (FIG. 6), in words) | EC50 (HL-60 cells; Homo sapiens, HL-60) [nM] | potency on HL-60 differentiation compared to 1,25(OH)2D3 (HL-60 cells; in words, FIG. 3) | intestinal calcium transport ([3]; 260 pmol/day) | intestinal calcium transport ([3]; 1300 pmol/day (5-fold higher)) | intestinal calcium transport activity [3] | Ki [4] [nM] | mobilization of bone calcium ([5]; 260 pmol/day for 7 days) | mobilization of bone calcium ([5]; 1300 pmol/day (5-fold)) | bone calcium mobilization activity ([5]; low calcium diet (0.02%)) | EC50 (HL-60 cells) [nM] | serum calcium levels (bone calcium mobilization) ([5]; low calcium diet (0.02%), all dosages) | intestinal calcium transport ([3]; doses higher than 1300 pmol/day) |
| --- | --- | --- | --- | --- | --- | --- | --- | --- | --- | --- | --- | --- | --- | --- | --- |
| C=C1[C@H](O)CC(=C/C=C2\CCC[C@]3(C)C(CC)CCC23)C[C@H]1O (stereo partly drawn) [2-Mpregna, 1α-hydroxy-2-methylene-19-nor-pregnacalciferol] | bound equally well | no increase in serum calcium | very little calcemic activity | 17 | almost as potent as 1,25(OH)2D3 | do not promote intestinal calcium transport | do not promote intestinal calcium transport | very little activity | 0.3 | did not result in mobilization of bone calcium | without effect | very little bone calcium mobilization activity; also recorded: little, if any, activity | – | – | – |
| C=C1/C(=C\C=C2/CCC[C@]3(C)[C@@H]([C@H](C)CCCC(C)(C)O)CC[C@@H]23)C[C@@H](O)C[C@@H]1O [1,25(OH)2D3, 1α,25-dihydroxyvitamin D3, reference compound] | – | – | – | – | – | promotes a significant increase | – | – | – | – | – | – | 5 | increased serum calcium levels at all dosages | – |
| C=C1C(O)CC(=CC=C2CCCC3(C)C2CCC3C(C)C)CC1O (stereo not drawn) [2-MP, 1α-hydroxy-2-methylene-19-nor-homopregnacalciferol] | – | – | – | – | – | calcium transport activity equivalent to 1,25(OH)2D3 | calcium transport activity equivalent to 1,25(OH)2D3 | – | 0.3 | did not result in mobilization of bone calcium | without effect | little, if any, activity | 6 | – | decreased this activity |
| C[C@H](CCCC(C)(C)O)[C@H]1CC[C@H]2/C(=C/C=C3C[C@@H](O)C[C@H](O)C3)CCC[C@]12C [1,25(OH)2 19-nor-D3, 1α,25-dihydroxy-19-nor-vitamin D3, reference compound] | – | produced frank hypercalcemia | – | – | – | – | – | devoid of intestinal calcium transport activity | 0.2 | did not result in mobilization of bone calcium | – | – | 4 | – | – |
| C=C1[C@H](O)CC(=C/C=C2\CCC[C@]3(C)[C@@H]([C@@H](C)CC)CC[C@@H]23)C[C@H]1O [2-MbisP, (20S)-1α-hydroxy-2-methylene-19-nor-bishomopregnacalciferol] | – | – | – | – | – | do not promote intestinal calcium transport | do not promote intestinal calcium transport | – | 0.6 | did not result in mobilization of bone calcium | without effect | little, if any, activity | 7 | – | – |
